# Measurements taken from patent publication US12391685B2, “Inhibitors of RNA-guided nuclease target binding and uses thereof” (THE BROAD INSTITUTE, INC., priority 2018, dated 2025).
# Legend:
# SpCas9 [1] = target: T1, SpCas9 (Streptococcus pyogenes serotype M1, UniProt Q99ZW2); assay: In vitro pulldown from WM793-SpCas9 cell lysate; type: binding, S. pyogenes; design: host or cells: U2OS.eGFP.PEST; conditions: streptavidin magnetic beads, 12 h
# SpCas9:gRNA complex = target: T2, SpCas9:gRNA complex (Streptococcus pyogenes serotype M1, UniProt Q99ZW2); assay: Bio-layer interferometry (BLI), compound-SpCas9 interaction; type: binding, S. pyogenes; conditions: 1 μM biotinylated compound on streptavidin sensors, SpCas9:gRNA 0.15-1 μM; read-out: dissociation constant
# T2 construct: made in house; host or cells: E. coli Rosetta (DE3)
# Method: Compound-SpCas9 interaction in BLI. The experiments were performed in a 96-well format with 180 μL reaction volume using […] and streptavidin sensors. 1 μM of the biotinylated compound was loaded onto the sensors for 180 s in 20 mM Tris buffer (100 mM KCl, 5 mM MgCl2, 1 mM DTT, 0.01% Tween, pH 7.4). Compound-loaded sensors were then allowed to associate with different concentrations of the SpCas9:gRNA complex (0.15-1 μM) for 300 s, followed by dissociation in reaction buffer. The reference sensor was loaded with compound and allowed to associate and dissociate in reaction buffer alone. Response curves were fitted with a 2:1 stoichiometric model and a global fit steady-state analysis was performed using manufacturer's protocol. Experiments were performed in triplicate.
# Competition experiments were performed using biotin-linker fragment. In this experiment, streptavidin sensors were pre-incubated with 10 μM of biotin-linker for 10 min before dipping into a solution of either 1 μM BRD7087-biotin or reaction buffer alone. Sensors were then allowed to associate with different concentration of SpCas9:gRNA complex (0.15-1 μM) or buffer alone.
# SpCas9 [2] = target: T1, SpCas9; assay: In vitro pull-down assay with preformed SpCas9:gRNA complex; type: binding, S. pyogenes; design: made in house; host or cells: E. coli Rosetta (DE3)
# Method: In vitro pull-down assay. Pull-down of SpCas9 by biotinylated compound was performed by incubating a preformed SpCas9:gRNA complex with biotin-compound pre-loaded streptavidin magnetic beads. Initially, a 5 μM biotin compound was incubated with 120 μL streptavidin magnetic bead suspension for 30 min in 1× Cas9 activity buffer (20 mM Tris-HCl buffer, 150 mM KCl, 5 mM MgCl2, 1 mM DTT, pH 7.5). Next, beads were collected and washed with buffer twice and resuspended in 120 μL of 1× Cas9 activity buffer and distributed in 6 different tubes. A 0.3 μM of 480 μL of preformed SpCas9:gRNA complex were added to each tube along with the unlabeled BRD3433 compound (5 μM and 10 μM) in the competition experiment. The tubes were incubated at 4° C. for 12 h before collecting the beads and washed with 500 μL 1× Cas9 activity buffer. The beads were resuspended in 1× SDS gel loading buffer and denatured at 98° C. for 10 min. The samples were analyzed by electrophoresis followed by staining with Coomassie for 15 min before imaging.
# SpCas9 [3] = target: T1, SpCas9; assay: NHEJ assay in HEK293T cells; type: cell-based, S. pyogenes; conditions: 2-10 μM, 24 h
# Method: NHEJ assay. Approximately 8,000 cells/well were seeded in a 96-well plate 24 h before transient transfection with a total 100 ng of DN66 (mCherry—TAG—GFP reporter) and DN78 (SpCas9 and gRNA) plasmids (1:1) using Lipofectamine 2000 (Life Technologies) (Nguyen et al., 2016b). Transfected cells were incubated with the indicated amount of small molecule or DMSO for 24 h. Cells were then fixed using 4% paraformaldehyde and imaged with the HCS NuclearMask™ Blue Stain (Life Technologies) as the nuclear counter-staining agent. Imaging was performed with an ImageXpress Micro automated microscope (Molecular Devices) at 4× magnification under three excitation channels (blue, green and red) with 9 acquisition sites per well. Images were analyzed in the MetaXpress software to determine the % NHEJ and the data were plotted using GraphPad Prism 6. The Z′-value was calculated following the formula: Z′=1−(3(σ1+σ2))/(|μ1−μ2|) where σ1 and σ2 are the standard deviations of DN66 transfected wells and (DN66+DN78) transfected wells respectively. μ1 and μ2 are the mean % GFP cell population for DN66 transfected wells and (DN66+DN78) transfected wells respectively.
# [4] = tested on: U2OS.eGFP.PEST cells and HEK293T cells; assay: Cell viability (ATP content); conditions: 5-20 μM, 24 h
# SpCas9 [5] = target: T1, SpCas9; assay: eGFP-disruption assay in U2OS.eGFP.PEST cells; type: cell-based, S. pyogenes; design: host or cells: U2OS.eGFP.PEST; conditions: U2OS.eGFP.PEST cells
# Method: SpCas9 nuclease activity in eGFP-disruption assay. Approximately 200,000 U2OS.eGFP-PEST cells were nucleofected following two different methods either by nucleofecting plasmids or RNP using the SE Cell Line 4D-Nucleofector™ X Kit (Lonza) according to the manufacturer's protocol. In the plasmid nucleofection method, cells were nucleofected either with 440 ng of SpCas9 (Addgene Plasmid #43861) or 400 ng of SpCas9 along with 40 ng of sgRNA (pFYF1320 eGFP Site #1, Addgene Plasmid #47511). Cells nucleofected only with SpCas9-expressing plasmid were used as the transfection control. In the RNP nucleofection method, either […] SpCas9 or 20 pmol preformed SpCas9:gRNA (eGFP Site #1) complex were nucleofected. Approximately 20,000 transfected cells/well were plated in 4 replicates in a 96-well plate (Corning® 3904). Cells were incubated with the indicated amount of compound or DMSO for 24 h post transfection. A DMSO solution of compound (20 mM) was resuspended in the 10% FBS containing growth media and thoroughly mixed before adding to the cells. Cells were then fixed using 4% paraformaldehyde and imaged with the HCS NuclearMask™ Blue Stain (Life Technologies) as the nuclear counter-staining agent. Imaging was performed with an ImageXpress Micro automated microscope (Molecular Devices) at 10× magnification under three excitation channels (blue, green and red) acquiring nine sites per well. Images were analyzed using MetaXpress software and data were plotted using GraphPad Prism 6.
# The Z′-value was calculated using the equation (1), where σ1 and σ2 are the standard deviations of DMSO control and SpCas9:gRNA control respectively. μ1 and μ2 are the mean % GFP^− cell population for DMSO control and SpCas9:gRNA control, respectively.
# SpCas9 [6] = target: T1, SpCas9; assay: mKate2-disruption assay in HEK293T cells; type: cell-based, S. pyogenes; conditions: 1.5-5 μM, 24 h
# Method: mKate2-disruption assay. Approximately 8,000 cells/well were seeded in a 96-well plate 24 h before transient transfection with 100 ng of either CgRNA (Addgene Plasmid #64955) or T1gRNA (Addgene Plasmid #62717) plasmids using Lipofectamine 2000 (Life Technologies). Transfected cells were allowed to grow in the indicated amount of small molecule or DMSO for 24 h. Cells were then fixed using 4% paraformaldehyde and imaged with the HCS NuclearMask™ Blue Stain (Life Technologies) as the nuclear counter-staining agent. Imaging was performed with an ImageXpress Micro automated microscope (Molecular Devices) at 20× magnification under two excitation channels (blue and red) with 9 acquisition sites per well. Images were analyzed using the MetaXpress software to determine the % mKate2 positive cells and data was plotted using GraphPad Prism 6. The Z′-value was calculated following the formula: Z′=1−(3(σ1+σ2))/(|μ1−μ2|) where σ1 and σ2 are the standard deviations of CgRNA transfected wells and T1gRNA transfected wells respectively. μ1 and μ2 are the mean % RFP^+ cell population for CgRNA transfected wells and T1gRNA transfected wells, respectively.
# [7] = target: T3, dCas9-based transcription-activation complex (Streptococcus pyogenes serotype M1, UniProt Q99ZW2, D10A, form not given); assay: dCas9-based transcription activation of HBG1 in HEK293FT cells (RT-qPCR); type: cell-based, S. pyogenes; conditions: 20 μM
# T3 construct: "dSpCas9|Feng Zhang lab|NA"; The MS2-p65-HSF1(-GFP) effector is a separate chain recruited through MS2 aptamers in the sgRNA
# Method: Transcription activation experiments and quantitative RT-PCR analyses. HEK293FT cells were maintained in high glucose DMEM with glutamax (Life Technologies) and supplemented with 10% FBS (Life Technologies), 1% penicillin-streptomycin (Life Technologies) and 1 mM sodium pyruvate (Life Technologies). For transcription activation experiments, 20,000 cells/well were plated in a poly D-lysine-coated 96-well plate. The cells were transiently transfected with a 1:1:1 mass ratio of the dCas9 plasmid, MS2-P65-HSF1 effector plasmid and the sgRNA plasmid targeting the HBG1 gene or an RFP control plasmid. A total of 0.3 μg plasmid DNA was transfected using Lipofectamine 2000 (Life Technologies) according to manufacturer's protocol. Immediately after transfection, the cells were treated with an appropriate dose of the small-molecule inhibitors. A DMSO solution of compound (20 mM) was resuspended in the 10% FBS containing growth media and thoroughly mixedbefore adding to the cells. After 48 h the cells were lysed and 5 μL of the cell lysate was used to perform reverse transcription using the RevertAid RT Reverse Transcription Kit (Thermo Fischer Scientific) as described by Joung J. et al. qPCR reactions were performed to quantify RNA expression using the TaqMan probes (Life Technologies, HBG1/HBG2: Hs00361131_g1, ACTB: Hs01060665_g1) and TaqMan Fast Advanced Master Mix (Life Technologies) in 5 μL multiplexed reactions and 384-well format using the LightCycler 480 Instrument II (Roche). For each sample, four technical replicates were performed. Data were analyzed using the LightCycler 480 software (Roche) by the ΔΔCt method: Ct values for the gene of interest (HBG1) were normalized to Ct values for the housekeeping gene (ACTB), and fold-changes in the expression level of gene of interest were normalized to RFP-transfected control. The data is reported as mean±S.E.M. for technical replicates.
# T1 sequence (Q99ZW2 whole entry): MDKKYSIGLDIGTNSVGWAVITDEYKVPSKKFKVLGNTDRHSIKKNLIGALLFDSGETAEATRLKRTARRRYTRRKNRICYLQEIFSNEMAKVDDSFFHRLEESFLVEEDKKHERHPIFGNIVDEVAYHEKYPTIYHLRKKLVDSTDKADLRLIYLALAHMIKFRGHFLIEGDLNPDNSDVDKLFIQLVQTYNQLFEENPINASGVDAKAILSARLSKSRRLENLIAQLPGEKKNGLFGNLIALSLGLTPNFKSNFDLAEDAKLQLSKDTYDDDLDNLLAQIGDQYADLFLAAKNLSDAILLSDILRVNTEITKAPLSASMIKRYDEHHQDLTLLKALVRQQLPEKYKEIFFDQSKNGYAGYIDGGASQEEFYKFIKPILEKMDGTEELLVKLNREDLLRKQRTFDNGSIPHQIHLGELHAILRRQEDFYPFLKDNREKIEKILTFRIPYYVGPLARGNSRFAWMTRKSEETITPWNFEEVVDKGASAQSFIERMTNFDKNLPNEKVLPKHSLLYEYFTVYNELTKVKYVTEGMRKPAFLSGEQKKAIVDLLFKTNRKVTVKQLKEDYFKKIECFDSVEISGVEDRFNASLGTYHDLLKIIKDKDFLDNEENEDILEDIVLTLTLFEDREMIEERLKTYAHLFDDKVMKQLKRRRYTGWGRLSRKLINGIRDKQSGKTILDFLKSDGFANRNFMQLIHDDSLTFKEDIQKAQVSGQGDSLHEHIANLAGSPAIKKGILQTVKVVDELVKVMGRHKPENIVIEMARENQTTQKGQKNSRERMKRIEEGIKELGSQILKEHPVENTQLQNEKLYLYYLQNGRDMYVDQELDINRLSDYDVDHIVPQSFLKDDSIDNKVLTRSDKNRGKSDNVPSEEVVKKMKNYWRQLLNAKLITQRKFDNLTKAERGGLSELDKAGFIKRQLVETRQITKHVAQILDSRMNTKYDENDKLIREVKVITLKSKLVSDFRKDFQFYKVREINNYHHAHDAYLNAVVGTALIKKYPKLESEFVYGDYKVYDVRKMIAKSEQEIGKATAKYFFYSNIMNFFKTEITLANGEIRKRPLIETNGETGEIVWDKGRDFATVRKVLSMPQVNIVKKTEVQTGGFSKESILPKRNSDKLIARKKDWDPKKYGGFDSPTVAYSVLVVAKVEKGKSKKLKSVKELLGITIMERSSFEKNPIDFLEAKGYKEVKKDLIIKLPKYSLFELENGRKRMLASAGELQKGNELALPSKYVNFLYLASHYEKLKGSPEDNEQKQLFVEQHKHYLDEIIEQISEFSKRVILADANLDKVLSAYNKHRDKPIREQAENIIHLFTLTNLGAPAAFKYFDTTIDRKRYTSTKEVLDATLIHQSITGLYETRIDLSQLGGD
# T3 sequence (Q99ZW2 whole entry, form open, one chain of several, change not shown): as the sequence (Q99ZW2 whole entry) above
# T2 sequence (Q99ZW2 whole entry, one chain of several): as the sequence (Q99ZW2 whole entry) above
structure (smiles),measurement,setting,value
"Cc1ccc(S(=O)(=O)N2CC[C@@H]3[C@H](CNC(=O)CCOCCOCCOCCNC(=O)CCCC[C@@H]4SC[C@@H]5NC(=O)N[C@@H]54)Nc4ccc(-c5ccccc5F)cc4[C@@H]32)cc1 [biotinylated BRD0539, N-(1-((3aR,4R,9bR)-8-(2-fluorophenyl)-1-tosyl-2,3,3a,4,5,9b-hexahydro-1H-pyrrolo[3,2-c]quinolin-4-yl)-3-oxo-6,9,12-trioxa-2-azatetradecan-14-yl)-5-((3aS,4S,6aR)-2-oxohexahydro-1H-thieno[3,4-d]imidazol-4-yl) pentanamide]",pulldown of SpCas9 from WM793-SpCas9 cell lysate,SpCas9 [1],able to pulldown SpCas9
"O=C(CCCC[C@@H]1SC[C@@H]2NC(=O)N[C@@H]21)NCCOCCOCCOCCC(=O)Nc1cccc(-c2ccc3c(c2)[C@H]2[C@H](CCN2Cc2ccncc2)[C@@H](CO)N3)c1 [BRD3539, N-(2-(2-(2-(3-((3-((3aR,4S,9bR)-4-(Hydroxymethyl)-1-(pyridin-4-ylmethyl)-2,3,3a,4,5,9b-hexahydro-1H-pyrrolo[3,2-c]quinolin-8-yl)phenyl)amino)-3-oxopropoxy)ethoxy)ethoxy)ethyl)-5-((3aS,4S,6aR)-2-oxohexahydro-1H-thieno[3,4-d]imidazol-4-yl) pentanamide]",Kd,SpCas9:gRNA complex,700 nM
"COc1cccc(-c2ccc3c(c2)[C@H]2[C@H](CCN2C(=O)Cc2ccncc2)[C@H](CNC(=O)CCOCCOCCOCCNC(=O)CCCC[C@@H]2SC[C@@H]4NC(=O)N[C@@H]42)N3C)c1 [biotinylated BRD3433, N-(1-((3aS,4R,9bR)-8-(3-methoxyphenyl)-5-methyl-1-(2-(pyridin-4-yl)acetyl)-2,3,3a,4,5,9b-hexahydro-1H-pyrrolo[3,2-c]quinolin-4-yl)-3-oxo-6,9,12-trioxa-2-azatetradecan-14-yl)-5-((3aS,4S,6aR)-2-oxohexahydro-1H-thieno[3,4-d]imidazol-4-y1) pentanamide]",pull-down of SpCas9 (gel electrophoresis),SpCas9 [2],enrichment of SpCas9 in the eluent
"COc1ccc(-c2ccc3c(c2)[C@H]2[C@H](CCN2Cc2ccncc2)[C@@H](CO)N3)cc1 [BRD5779, ((3aR,4S,9bR)-8-(4-Methoxyphenyl)-1-(pyridin-4-ylmethyl)-2,3,3a,4,5,9b-hexahydro-1H-pyrrolo[3,2-c]quinolin-4-yl) methanol]",inhibition of SpCas9 in the NHEJ assay (in words),SpCas9 [3],dose-dependent inhibition
same,cytotoxicity (in words),[4],non-cytotoxic
same,inhibition of SpCas9 in the eGFP-disruption assay (in words),SpCas9 [5],dose-dependent inhibition
same,inhibition of SpCas9 in the mKate2 disruption assay (in words),SpCas9 [6],dose-dependent inhibition
same,inhibition of transcriptional activation,[7],~60%
